Measured values published in patent publication US12201626B2, “Bifunctional compositions for the treatment of cancer” (ARMACEUTICA, INC., priority 2018, dated 2025).

Tested on: CEM cell line
Assay: Differential Nuclear Staining (DNS) cytotoxicity assay
Type: cell-based, human
Excerpt: In this study, 19 human cell lines were utilized: seven breast human cancer; MDA-MB-468, MCF-7, T47D, HCC1419, HCC70, MDA-MB-231 (triple negative) and its lung metastatic (LM) derivative MDA-MB-231 LM2; four human leukemia/lymphoma cells, HL-60, Ramos, Jurkat and CEM, three human ovarian cancer, Ovcar 8, Ovcar 5 and Ovcar 3, one lung cancer, one melanoma and one pancreatic cell line, A549, A375, Panc-1 respectively. Furthermore, for selectivity/comparative purposes, the cell lines from the non-cancerous origin, MCF-10A, HS-27 were also included. […] The adherent cells, growing in the logarithmic growth phase at a 60-75% confluence, were detached by utilizing a HyQtase enzyme (Thermo Fisher Scientific Inc.), counted and seeded in 96-well plates at 10,000 cells density in 100 μL of culture medium per well. […]
To analyze the potential cytotoxic activity of PND, the Differential Nuclear Staining (DNS) assay, which was validated for high-throughput screening (HTS) using live-cell bio-imaging was utilized. […] Montages of 2 by 2 images were captured directly from each individual well of the culture plates by using a multi-well plate reader IN Cell 2000 analyzer, an HTS and high-content analysis (HCA) system (GE Healthcare Life Sciences, Pittsburgh, PA). […] Each experimental data point, as well as controls, were assessed in triplicates. […]

SMILES: COC1=CC=C2Nc3cc(Cl)ccc3C(N=C3C=C(CN4CCCC4)C(=O)C(CN4CCCC4)=C3)=C2N1 [PND, 4-[(7-chloro-2-methoxy-1,5-dihydrobenzo[b][1,5]naphthyridin-10-yl)imino]-2,6-bis(pyrrolidin-1-ylmethyl)cyclohexa-2,5-dien-1-one]
- selectivity (SCI): poor selectivity
